Values of other authors, collected in patent US7915306B2, “Macrocyclic compounds useful as pharmaceuticals” (Eisai Co., Ltd., priority 2002, dated 2011).
Like-named read-outs stand apart in the source and are kept apart here.

Tests used:
[1] = human plasma
[2] = mouse plasma

## COc1cc(O)c2c(c1)/C=C/C[C@H](O)[C@H](O)C(=O)/C=C\C[C@H](C)OC2=O [F152]
[1]
  biological stability (enone isomerization): susceptible to enone isomerization
[2]
  biological stability (enone isomerization): susceptible to enone isomerization
Map/Erk kinase (MEK)
  inhibition of Map/Erk kinase (MEK): inhibit
